Data taken from patent US20240391936A1, “TETRAHYDROTHIENO PYRIDINE DERIVATIVES AS DDRS INHIBITORS” (CHIESI FARMACEUTICI S.P.A., priority 2021, published 2024).
pIC50, pKi: −log10 of the molar value.

Columns and labels:
DDR1 [1] = molecular target: T1, DDR1 (Homo sapiens, UniProt Q08345); assay: DDR1 cell based assay (PathHunter U2OS DDR1 assay); design: host or cells: U2OS-DDR1 (PathHunter); conditions: U2OS-DDR1 cells, bovine Type II Collagen 20 μg/ml
Procedure, shortened: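 Receptor activation measured by enzyme-fragment complementation luminescence in engineered U2OS cells. Compound added 30 min before overnight challenge with 20 μg/ml bovine collagen II; data scaled between vehicle and collagen-stimulated controls, IC50 derived by four-parameter variable-slope fitting.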

DDR1 [2] = molecular target: T1, DDR1; assay: DDR1 binding assay (LanthaScreen Europium Kinase Binding assay); design: purchased Carna Biosciences; conditions: binding assay, 5 nM DDR1, 20 nM Kinase Tracer 178; Ki from IC50 by Cheng-Prusoff; read-out: Ki DDR1
Procedure, shortened: (§1)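 TR-FRET tracer-displacement format: 665/615 nm emission ratio (340 nm excitation) gave IC50 by 4-parameter fit, then Ki via Cheng-Prusoff. Each kinase at 5 nM with 2 nM Eu-anti-GST antibody and Tracer 178 (DDR1 20 nM, DDR2 10 nM), 1 h, room temperature, HEPES pH 7.5 buffer.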

DDR2 = molecular target: T2, DDR2 (Homo sapiens, UniProt Q16832); assay: DDR2 binding assay (LanthaScreen Europium Kinase Binding assay); design: purchased Life Technologies; conditions: binding assay, 5 nM DDR2, 10 nM Kinase Tracer 178; Ki from IC50 by Cheng-Prusoff; read-out: Ki DDR2
T2 sequence (Q16832 22-855): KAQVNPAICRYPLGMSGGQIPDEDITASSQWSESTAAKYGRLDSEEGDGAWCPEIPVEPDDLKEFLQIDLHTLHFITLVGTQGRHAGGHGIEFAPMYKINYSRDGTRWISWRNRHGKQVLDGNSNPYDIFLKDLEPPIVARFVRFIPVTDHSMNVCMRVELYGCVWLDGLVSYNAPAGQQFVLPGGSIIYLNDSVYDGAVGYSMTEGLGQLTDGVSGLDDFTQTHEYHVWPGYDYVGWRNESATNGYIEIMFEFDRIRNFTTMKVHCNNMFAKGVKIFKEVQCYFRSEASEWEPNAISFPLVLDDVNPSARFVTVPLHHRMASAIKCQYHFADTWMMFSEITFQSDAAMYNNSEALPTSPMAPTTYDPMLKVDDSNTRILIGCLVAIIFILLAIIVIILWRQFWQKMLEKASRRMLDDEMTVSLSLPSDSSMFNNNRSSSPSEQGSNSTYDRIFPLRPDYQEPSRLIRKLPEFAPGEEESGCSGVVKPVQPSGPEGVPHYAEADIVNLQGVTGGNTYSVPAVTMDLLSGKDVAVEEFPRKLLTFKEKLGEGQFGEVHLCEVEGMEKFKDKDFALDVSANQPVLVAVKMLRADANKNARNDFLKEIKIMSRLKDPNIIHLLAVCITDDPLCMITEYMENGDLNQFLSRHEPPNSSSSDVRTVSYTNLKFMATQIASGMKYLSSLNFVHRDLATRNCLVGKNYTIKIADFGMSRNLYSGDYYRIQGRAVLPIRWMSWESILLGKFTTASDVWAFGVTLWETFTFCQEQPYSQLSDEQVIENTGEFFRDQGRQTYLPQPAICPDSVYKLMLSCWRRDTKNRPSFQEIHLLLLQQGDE
Procedure, shortened: as §1

T1 sequence (Q08345 19-913): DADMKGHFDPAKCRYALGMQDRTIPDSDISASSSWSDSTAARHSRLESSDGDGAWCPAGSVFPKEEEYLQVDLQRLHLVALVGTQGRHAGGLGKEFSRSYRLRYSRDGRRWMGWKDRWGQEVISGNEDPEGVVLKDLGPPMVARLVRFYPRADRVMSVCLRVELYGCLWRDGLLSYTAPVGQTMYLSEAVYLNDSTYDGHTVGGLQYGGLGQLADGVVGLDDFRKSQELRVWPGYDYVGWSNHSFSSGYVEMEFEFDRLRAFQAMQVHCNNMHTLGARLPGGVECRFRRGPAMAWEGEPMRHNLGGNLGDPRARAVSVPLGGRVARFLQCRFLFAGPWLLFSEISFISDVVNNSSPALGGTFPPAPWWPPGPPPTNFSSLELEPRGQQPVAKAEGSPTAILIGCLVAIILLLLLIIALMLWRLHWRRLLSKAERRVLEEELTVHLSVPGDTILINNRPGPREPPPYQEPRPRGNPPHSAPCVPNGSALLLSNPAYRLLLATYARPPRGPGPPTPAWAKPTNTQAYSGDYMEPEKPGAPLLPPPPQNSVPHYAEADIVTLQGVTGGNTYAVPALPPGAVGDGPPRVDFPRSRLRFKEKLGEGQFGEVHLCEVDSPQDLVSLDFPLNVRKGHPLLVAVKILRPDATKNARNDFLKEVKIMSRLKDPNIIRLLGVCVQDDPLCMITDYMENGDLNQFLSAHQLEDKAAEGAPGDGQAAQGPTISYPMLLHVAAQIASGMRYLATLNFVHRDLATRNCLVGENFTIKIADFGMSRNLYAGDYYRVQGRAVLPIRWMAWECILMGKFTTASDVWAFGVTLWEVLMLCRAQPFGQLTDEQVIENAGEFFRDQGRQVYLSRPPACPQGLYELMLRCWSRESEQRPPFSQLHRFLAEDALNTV

Row | pIC50 (DDR1 [1]) | pKi (DDR1 [2]) | pKi (DDR2) | Compound
1 | 7.30 to 7.60 | > 7.60 | > 7.60 | Cc1ccc2ncc(C(=O)N3CCc4c(C(=O)Nc5cc(C(C)(C)C)nn5C)csc4C3)n2c1 [Example 80, N-(3-(tert-butyl)-1-methyl-1H-pyrazol-5-yl)-6-(6-methylimidazo[1,2-a]pyridine-3-carbonyl)-4,5,6,7-tetrahydrothieno[2,3-c]pyridine-3-carboxamide]
2 | 7.10 to 7.30 | > 7.60 | > 7.60 | Cn1nc(C(C)(C)C)cc1NC(=O)c1csc2c1CCN(C(=O)c1cnc3ccc(F)cn13)C2 [Example 81, N-(3-(tert-butyl)-1-methyl-1H-pyrazol-5-yl)-6-(6-fluoroimidazo[1,2-a]pyridine-3-carbonyl)-4,5,6,7-tetrahydrothieno[2,3-c]pyridine-3-carboxamide]
3 | 7.30 to 7.60 | > 7.60 | > 7.60 | Cn1nc(C(C)(C)C)cc1NC(=O)c1csc2c1CCN(C(=O)c1cnc3ccc(C(F)(F)F)cn13)C2 [Example 82, N-(3-(tert-butyl)-1-methyl-1H-pyrazol-5-yl)-6-(6-(trifluoromethyl)imidazo[1,2-a]pyridine-3-carbonyl)-4,5,6,7-tetrahydrothieno[2,3-c]pyridine-3-carboxamide]
4 | 7.30 to 7.60 | > 7.60 | > 7.60 | Cn1nc(C(C)(C)C)cc1NC(=O)c1csc2c1CCN(C(=O)c1cnc3ccc(Cl)cn13)C2 [Example 83, N-(3-(tert-butyl)-1-methyl-1H-pyrazol-5-yl)-6-(6-chloroimidazo[1,2-a]pyridine-3-carbonyl)-4,5,6,7-tetrahydrothieno[2,3-c]pyridine-3-carboxamide]
5 | 7.10 to 7.30 | > 7.60 | > 7.60 | O=C(Nc1cccc(C(F)(F)F)c1)c1csc2c1CCN(Cc1cnc3cccnn13)C2 [Example 87, 6-(imidazo[1,2-b]pyridazin-3-ylmethyl)-N-(3-(trifluoromethyl)phenyl)-4,5,6,7-tetrahydrothieno[2,3-c]pyridine-3-carboxamide]
6 | > 7.60 | > 7.60 | > 7.60 | O=C(Nc1cccc(C(F)(F)F)c1)c1csc2c1CCN(Cc1cnc3ccnn3c1)C2 [Example 88, 6-(pyrazolo[1,5-a]pyrimidin-6-ylmethyl)-N-(3-(trifluoromethyl)phenyl)-4,5,6,7-tetrahydrothieno[2,3-c]pyridine-3-carboxamide]
7 | > 7.60 | > 7.60 | > 7.60 | O=C(Nc1cccc(C(F)(F)F)c1)c1csc2c1CCN(Cc1cnn3cccnc13)C2 [Example 89, 6-(pyrazolo[1,5-a]pyrimidin-3-ylmethyl)-N-(3-(trifluoromethyl)phenyl)-4,5,6,7-tetrahydrothieno[2,3-c]pyridine-3-carboxamide]
8 | > 7.60 | > 7.60 | > 7.60 | O=C(Nc1cccc(C(F)(F)F)c1)c1csc2c1CCN(C(=O)c1cnc3[nH]ncc3c1)C2 [Example 91, 6-(1H-pyrazolo[3,4-b]pyridine-5-carbonyl)-N-(3-(trifluoromethyl)phenyl)-4,5,6,7-tetrahydrothieno[2,3-c]pyridine-3-carboxamide]
9 | > 7.60 | > 7.60 | > 7.60 | O=C(Nc1cccc(C(F)(F)F)c1)c1csc2c1CCN(C(=O)c1cnc3cccnn13)C2 [Example 92, 6-(imidazo[1,2-b]pyridazine-3-carbonyl)-N-(3-(trifluoromethyl)phenyl)-4,5,6,7-tetrahydrothieno[2,3-c]pyridine-3-carboxamide]
10 | 7.10 to 7.30 | > 7.60 | > 7.60 | O=C(Nc1cccc(C(F)(F)F)c1)c1csc2c1CCN(C(=O)c1cnn3cccnc13)C2 [Example 94, 6-(pyrazolo[1,5-a]pyrimidine-3-carbonyl)-N-(3-(trifluoromethyl)phenyl)-4,5,6,7-tetrahydrothieno[2,3-c]pyridine-3-carboxamide]
11 | > 7.60 | > 7.60 | > 7.60 | O=C(Nc1cccc(C(F)(F)F)c1)c1csc2c1CCN(C(=O)c1cnc3n1CCCC3)C2 [Example 95, 6-(5,6,7,8-tetrahydroimidazo[1,2-a]pyridine-3-carbonyl)-N-(3-(trifluoromethyl)phenyl)-4,5,6,7-tetrahydrothieno[2,3-c]pyridine-3-carboxamide]
12 | > 7.60 | > 7.60 | > 7.60 | O=C(Nc1cccc(C(F)(F)F)c1)c1csc2c1CCN(C(=O)c1cnc3n1CCOC3)C2 [Example 96, 6-(5,6-dihydro-8H-imidazo[2,1-c][1,4]oxazine-3-carbonyl)-N-(3-(trifluoromethyl)phenyl)-4,5,6,7-tetrahydrothieno[2,3-c]pyridine-3-carboxamide]
13 | > 7.60 | > 7.60 | > 7.60 | O=C(Nc1cc(F)cc(C(F)(F)F)c1)c1csc2c1CCN(C(=O)c1cnn3cccnc13)C2 [Example 97, N-(3-fluoro-5-(trifluoromethyl)phenyl)-6-(pyrazolo[1,5-a]pyrimidine-3-carbonyl)-4,5,6,7-tetrahydrothieno[2,3-c]pyridine-3-carboxamide]
14 | 7.30 to 7.60 | > 7.60 | 7.10 to 7.30 | CC1c2scc(C(=O)Nc3cc(C(C)(C)C)nn3C)c2CCN1C(=O)c1cnc2ccccn12 (stereo not drawn) [Example 99, N-(3-(tert-butyl)-1-methyl-1H-pyrazol-5-yl)-6-(imidazo[1,2-a]pyridine-3-carbonyl)-7-methyl-4,5,6,7-tetrahydrothieno[2,3-c]pyridine-3-carboxamide]
15 | 7.30 to 7.60 | > 7.60 | > 7.60 | O=C(Nc1cncc(C(F)(F)F)c1)c1csc2c1CCN(C(=O)c1cnn3cccnc13)C2 [Example 109, 6-(pyrazolo[1,5-a]pyrimidine-3-carbonyl)-N-(5-(trifluoromethyl)pyridin-3-yl)-4,5,6,7-tetrahydrothieno[2,3-c]pyridine-3-carboxamide]
16 | 7.30 to 7.60 | > 7.60 | > 7.60 | O=C(Nc1cncc(C(F)(F)F)c1)c1csc2c1CCN(C(=O)c1cnc3n1CCOC3)C2 [Example 110, 6-(5,6-dihydro-8H-imidazo[2,1-c][1,4]oxazine-3-carbonyl)-N-(5-(trifluoromethyl)pyridin-3-yl)-4,5,6,7-tetrahydrothieno[2,3-c]pyridine-3-carboxamide]
17 | 7.10 to 7.30 | > 7.60 | > 7.60 | O=C(Nc1cncc(C(F)(F)F)c1)c1csc2c1CCN(C(=O)c1cnc3n1CCCC3)C2 [Example 111, 6-(5,6,7,8-tetrahydroimidazo[1,2-a]pyridine-3-carbonyl)-N-(5-(trifluoromethyl)pyridin-3-yl)-4,5,6,7-tetrahydrothieno[2,3-c]pyridine-3-carboxamide]
18 | 7.30 to 7.60 | > 7.60 | > 7.60 | CC(C)(C)c1cc(NC(=O)c2csc3c2CCN(C(=O)c2cnc4n2CCOC4)C3)on1 [Example 112, N-(3-(tert-butyl)isoxazol-5-yl)-6-(5,6-dihydro-8H-imidazo[2,1-c][1,4]oxazine-3-carbonyl)-4,5,6,7-tetrahydrothieno[2,3-c]pyridine-3-carboxamide]
19 | 7.30 to 7.60 | > 7.60 | > 7.60 | CC(C)(C)c1cc(NC(=O)c2csc3c2CCN(C(=O)c2cnn4ccncc24)C3)on1 [Example 113, N-(3-(tert-butyl)isoxazol-5-yl)-6-(pyrazolo[1,5-a]pyrazine-3-carbonyl)-4,5,6,7-tetrahydrothieno[2,3-c]pyridine-3-carboxamide]
20 | 7.10 to 7.30 | > 7.60 | > 7.60 | Cn1nc(C2(C(F)(F)F)CC2)cc1NC(=O)c1csc2c1CCN(C(=O)c1cnc3ccccn13)C2 [Example 114, 6-(imidazo[1,2-a]pyridine-3-carbonyl)-N-(1-methyl-3-(1-(trifluoromethyl)cyclopropyl)-1H-pyrazol-5-yl)-4,5,6,7-tetrahydrothieno[2,3-c]pyridine-3-carboxamide]
